According to US20110144345A1, “SULFOXYIMINO-SUBSTITUTED BENZOYL DERIVATIVE AND HERBICIDE” (NIPPON SODA CO., LTD., priority 2008, published 2011):

Legend:
Format in all cases: in vivo
Set-up in all cases: scale not given here
[1] = test system: Echinochloa crus-galli; assay: Paddy pot test, herbicidal effect on Echinochloa crus-galli; conditions: Screening, 63 g/ha, applied at 1.5-leaf stage, examined after 3 weeks
Protocol: (§1) Plastic pots having an area of 100 cm^2 and a depth of 10 cm were filled with paddy soil which is puddled by adding water, and seeds of Echinochloa crus-galli and Scirpus juncoides were planted in the pots. After seeding, rice plants at the 2.5-leaf stage were transplanted and the pots were filled with water. The rice plants were grown in a greenhouse. […] The herbicidal effects and harmful effects on the rice plants were examined after 3 weeks. Herbicidal effects were examined according to the examination criteria described below and were represented by the herbicidal index. [table] […] [formula]

[2] = test system: rice plants; assay: Paddy pot test, harmful effects on transplanted rice plants; conditions: Screening, 63 g/ha, applied at Echinochloa crus-galli 1.5-leaf stage, examined after 3 weeks
Protocol: as §1

[3] = test system: Scirpus juncoides; assay: Paddy pot test, herbicidal effect on Scirpus juncoides; conditions: Screening, 63 g/ha, examined after 3 weeks
Protocol: as §1

Structure (SMILES)	Echinochloa crus-galli (herbicidal index) [1]	Rice (harmful effects on the rice plants, index) [2]	Scripus juncoides (herbicidal index) [3]
COc1ccc(C(=O)c2cnn(C)c2OCC(=O)c2ccc([N+](=O)[O-])cc2)c(Cl)c1N=S1(=O)CCCCC1 [Example 114]	10	0	8
COc1ccc(C(=O)c2c(C)nn(C)c2OCc2ccc3ccccc3c2)c(Cl)c1N=S1(=O)CCCCC1 [Example 253]	6	0	8
CCN(CC)CC.COc1ccc(C(=O)c2cnn(C)c2O)c(Cl)c1N=S1(=O)CCCCC1 [Example 137]	10	0	8
CC(C)c1ccc(C(=O)C2=C(O)CCCC2=O)c(Cl)c1N=S1(=O)CCCCC1 [Example 209]	7	0	6
CCCS(=O)(CCC)=Nc1c(OC)ccc(C(=O)c2cnn(C)c2OCc2ccc3ccccc3c2)c1Cl [Example 146]	5	0	6
COc1ccc(C(=O)c2cnn(C)c2OCc2ccccc2)c(Cl)c1N=S1(=O)CCCCC1 [Example 107]	7	0	7
CCCSC(=O)Oc1c(C(=O)c2ccc(C(=O)OC)c(N=S3(=O)CCCCC3)c2Cl)cnn1C [Example 202]	7	0	7
COc1ccc(C(=O)c2cnn(C)c2O)c(Cl)c1N=S(C)(=O)c1ccccc1 (stereo not drawn) [Example 118]	7	0	8
CCc1ccc(C(=O)c2cnn(C)c2O)c(Cl)c1N=S1(=O)CCCCC1 [Example 188]	10	1	7
COC(=O)c1ccc(C(=O)c2c(C3CC3)nn(C)c2O)cc1N=S1(=O)CCCCC1 [Example 102]	6	0	6
COc1ccc(C(=O)c2cnn(C)c2OCc2ccc3ccccc3c2)c(Cl)c1N=S(C)(=O)Cc1ccccc1 (stereo not drawn) [Example 121]	7	0	7
COC(=O)n1cc(C(=O)c2ccc(OC)c(N=S3(=O)CCCCC3)c2Cl)c(=O)n1C [Example 105]	10	0	8
CCS(=O)(CC)=Nc1c(OC)ccc(C(=O)c2cnn(C)c2OCc2ccc3ccccc3c2)c1Cl [Example 248]	5	0	8
Cn1ncc(C(=O)c2ccc(OC(F)F)c(N=S3(=O)CCCCC3)c2Cl)c1OCc1ccc2ccccc2c1 [Example 182]	10	0	7
COc1ccc(C(=O)c2cnn(C)c2OCC(=O)c2ccccc2)c(Cl)c1N=S1(=O)CCCCC1 [Example 116]	7	0	8
C#Cc1ccc(C(=O)C2=C(O)CCCC2=O)c(Cl)c1N=S1(=O)CCCCC1 [Example 173]	5	0	7
COc1c(C(=O)c2cnn(C)c2OCc2ccc3ccccc3c2)ccc(C)c1N=S1(=O)CCCCC1 [Example 136]	7	0	8
CCS(=O)(CC)=Nc1c(C(=O)OC)ccc(C(=O)C2=C(O)CCCC2=O)c1Cl [Example 148]	6	0	8
COc1ccc(C(=O)c2cn(C(=O)SC)n(C)c2=O)c(Cl)c1N=S1(=O)CCCCC1 [Example 155]	8	0	8
C=Cc1ccc(C(=O)c2cnn(C)c2O)c(Cl)c1N=S1(=O)CCCCC1 [Example 108]	10	0	8
C=C(C)c1ccc(C(=O)c2cnn(C)c2O)c(Cl)c1N=S1(=O)CCCCC1 [Example 204]	5	0	7

Structure (SMILES)	Echinochloa crus-galli (herbicidal index) [1]	Rice (harmful effects on the rice plants, index) [2]	Scripus juncoides (herbicidal index) [3]
Cc1ccc(C(=O)C2=C(O)CCCC2=O)c(C)c1N=S1(=O)CCCCC1 [Example 110]	10	0	8
Cn1ncc(C(=O)c2ccc(CO)c(N=S3(=O)CCCCC3)c2Cl)c1O [Example 117]	5	0	8
C#Cc1ccc(C(=O)c2cnn(C)c2O)c(Cl)c1N=S1(=O)CCCCC1 [Example 166]	6	0	8
CSC(=O)Oc1c(C(=O)c2cccc(N=S3(=O)CCCCC3)c2Br)cnn1C [Example 197]	7	0	7
COc1ccc(C(=O)c2cnn(C)c2OCc2ccc3ccccc3c2)c(Cl)c1N=S1(=O)CCCC1 [Example 129]	7	0	8
CCS(=O)(CC)=Nc1c(C)ccc(C(=O)C2=C(O)CCCC2=O)c1C [Example 158]	5	0	5
COc1ccc(C(=O)c2cnn(C)c2O)c(Cl)c1N=S(C)(=O)Cc1ccccc1 (stereo not drawn) [Example 119]	10	0	8
CSC(=O)Oc1c(C(=O)c2ccc(OC(F)F)c(N=S3(=O)CCCCC3)c2Cl)cnn1C [Example 185]	10	0	7
COC(=O)c1ccc(C(=O)C(C#N)C(=O)C2CC2)c(Cl)c1N=S1(=O)CCCCC1 (stereo not drawn) [Example 165]	5	0	8
COC(=O)c1ccc(C(=O)c2cnn(C)c2OC(=O)SC(C)C)c(Cl)c1N=S1(=O)CCCCC1 [Example 201]	5	0	7
CCCS(=O)(CCC)=Nc1c(OC)ccc(C(=O)c2cnn(C)c2O)c1Cl [Example 145]	10	0	8
COc1ccc(C(=O)c2cnn(C)c2OC(=O)SC)c(OC)c1N=S1(=O)CCCCC1 [Example 183]	7	0	6
C=C(C)c1ccc(C(=O)c2cnn(C)c2OC(=O)SC)c(Cl)c1N=S1(=O)CCCCC1 [Example 207]	6	0	7
COc1ccc(C(=O)c2cnn(C)c2OCc2ccc3ccccc3c2)c(OC)c1N=S1(=O)CCOCC1 [Example 134]	5	0	8
COc1ccc(C(=O)c2cnn(C)c2OC(=O)SC)c(Cl)c1N=S(C)(=O)C(C)C (stereo not drawn) [Example 211]	6	0	8
CCCS(=O)(=O)Oc1c(C(=O)c2ccc(OC)c(N=S3(=O)CCCCC3)c2Cl)cnn1C [Example 130]	10	0	8
COc1ccc(C(=O)c2cnn(C)c2OCc2ccc3ccccc3c2)c(Cl)c1N=S(C)(=O)c1ccccc1 (stereo not drawn) [Example 122]	10	0	6
COc1ccc(C(=O)c2cnn(C)c2OCc2ccc3ccccc3c2)c(Cl)c1N=S(C)(C)=O [Example 151]	6	0	5
CCOc1ccc(C(=O)c2cnn(C)c2OC(=O)SC)c(OC)c1N=S1(=O)CCCCC1 [Example 177]	5	0	7
COc1ccc(C(=O)c2cnn(C)c2OC(=O)c2ccccc2)c(Cl)c1N=S1(=O)CCCCC1 [Example 138]	10	0	8
COC(=O)c1ccc(C(=O)c2cnn(C)c2OC(=O)SC)c(Cl)c1N=S1(=O)CCCCC1 [Example 152]	10	0	8
